From ChEMBL document CHEMBL1201862, “PubChem BioAssay data set” (2004) come the findings set out here.

For experiment [1], the target named is Dual specificity tyrosine-phosphorylation-regulated kinase 1B (Homo sapiens, UniProt Q9Y463). Kind of experiment: Navigating the Kinome. Panel member name: DYRK1B. The experiment is classed as functional.
In experiment [2] the target is Protein kinase C theta type (Homo sapiens, UniProt Q04759). Kind of experiment: Navigating the Kinome. Panel member name: PRKCQ. Format: functional.
Experiment [3] deals with Dual specificity tyrosine-phosphorylation-regulated kinase 1A (Homo sapiens, UniProt Q13627). The experiment is classed as functional.
Experiment [4] concerns the target Serine/threonine-protein kinase TBK1 (Homo sapiens, UniProt Q9UHD2). Kind of experiment: Navigating the Kinome. Panel member name: TBK1. Format: functional.
For experiment [5], the target named is Dual specificity protein kinase CLK2 (Homo sapiens, UniProt P49760). Format: functional.
The target in experiment [6] is Dual specificity protein kinase CLK4 (Homo sapiens, UniProt Q9HAZ1). Format: functional.
Chain of Dual specificity protein kinase CLK4 (Q9HAZ1 whole entry): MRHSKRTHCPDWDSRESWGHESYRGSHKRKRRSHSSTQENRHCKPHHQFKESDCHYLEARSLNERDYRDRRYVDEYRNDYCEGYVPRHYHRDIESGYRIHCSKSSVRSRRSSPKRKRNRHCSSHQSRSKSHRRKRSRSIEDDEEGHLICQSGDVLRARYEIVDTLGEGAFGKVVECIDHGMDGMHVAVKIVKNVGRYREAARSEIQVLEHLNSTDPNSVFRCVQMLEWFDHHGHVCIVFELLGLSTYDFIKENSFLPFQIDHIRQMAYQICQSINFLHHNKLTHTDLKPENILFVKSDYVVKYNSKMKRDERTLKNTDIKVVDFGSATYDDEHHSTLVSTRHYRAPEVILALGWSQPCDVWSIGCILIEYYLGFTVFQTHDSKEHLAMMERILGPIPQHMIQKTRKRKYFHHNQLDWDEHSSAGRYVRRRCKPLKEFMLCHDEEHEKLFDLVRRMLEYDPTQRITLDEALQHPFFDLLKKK
Experiment [7] addresses Mitogen-activated protein kinase 12 (Homo sapiens, UniProt P53778). The experiment is classed as functional.
For another experiment, the target named is Insulin receptor (Homo sapiens, UniProt P06213). Format: functional.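 Also: insulin receptor kinase tested as one member of a kinome-wide kinase panel.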
Experiment [8] addresses Dual specificity tyrosine-phosphorylation-regulated kinase 4 (Homo sapiens, UniProt Q9NR20). Format: functional.
For experiment [9], the target named is Fibroblast growth factor receptor 3 (Homo sapiens, UniProt P22607). Format: functional.
The target of experiment [10] is RAC-gamma serine/threonine-protein kinase (Homo sapiens, UniProt Q9Y243). Format: functional.
Experiment [11] concerns the target MAP/microtubule affinity-regulating kinase 3 (Homo sapiens, UniProt P27448). Format: functional.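 Also: MARK3 affinity measured as one member of a kinome panel.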
The target of experiment [12] is Receptor tyrosine-protein kinase erbB-2 (Homo sapiens, UniProt P04626). Briefly: Navigating the Kinome. Panel member name: ERBB2. Format: functional.
Chain of Receptor tyrosine-protein kinase erbB-2 (P04626 whole entry): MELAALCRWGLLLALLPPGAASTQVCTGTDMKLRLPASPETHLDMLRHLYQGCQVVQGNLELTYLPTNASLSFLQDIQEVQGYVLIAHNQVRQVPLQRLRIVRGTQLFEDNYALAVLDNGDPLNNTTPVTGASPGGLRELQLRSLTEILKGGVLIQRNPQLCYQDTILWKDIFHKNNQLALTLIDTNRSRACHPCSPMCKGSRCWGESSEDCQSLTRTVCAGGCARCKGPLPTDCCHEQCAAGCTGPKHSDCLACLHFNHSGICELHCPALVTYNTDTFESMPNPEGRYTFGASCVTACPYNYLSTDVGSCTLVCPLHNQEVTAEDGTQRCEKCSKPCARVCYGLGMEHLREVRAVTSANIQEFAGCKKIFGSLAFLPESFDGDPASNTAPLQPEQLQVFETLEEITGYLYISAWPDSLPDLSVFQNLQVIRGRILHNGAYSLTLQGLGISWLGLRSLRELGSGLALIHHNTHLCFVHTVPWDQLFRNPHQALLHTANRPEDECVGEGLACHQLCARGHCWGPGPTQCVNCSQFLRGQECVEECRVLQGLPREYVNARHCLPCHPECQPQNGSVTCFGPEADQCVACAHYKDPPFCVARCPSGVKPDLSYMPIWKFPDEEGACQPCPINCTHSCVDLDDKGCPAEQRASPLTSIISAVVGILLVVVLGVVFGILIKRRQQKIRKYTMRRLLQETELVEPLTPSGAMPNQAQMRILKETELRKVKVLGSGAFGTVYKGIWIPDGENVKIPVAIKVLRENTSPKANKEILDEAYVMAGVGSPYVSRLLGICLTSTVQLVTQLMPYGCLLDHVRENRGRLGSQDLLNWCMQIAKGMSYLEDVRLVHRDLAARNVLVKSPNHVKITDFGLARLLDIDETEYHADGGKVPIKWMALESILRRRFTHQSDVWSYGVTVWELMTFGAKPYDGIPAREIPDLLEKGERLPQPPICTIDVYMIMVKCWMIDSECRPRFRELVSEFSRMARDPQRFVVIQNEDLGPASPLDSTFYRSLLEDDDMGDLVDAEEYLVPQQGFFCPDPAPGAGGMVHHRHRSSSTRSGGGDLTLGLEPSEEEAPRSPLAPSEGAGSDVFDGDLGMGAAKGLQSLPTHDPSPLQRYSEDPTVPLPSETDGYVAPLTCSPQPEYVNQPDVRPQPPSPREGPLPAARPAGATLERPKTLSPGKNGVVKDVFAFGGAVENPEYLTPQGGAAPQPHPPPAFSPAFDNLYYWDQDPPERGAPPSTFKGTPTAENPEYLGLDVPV
In experiment [13] the target is Tyrosine-protein kinase Lyn (Homo sapiens, UniProt P07948). Format: functional.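 Also: lyn as one member of a kinase panel.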
Chain of Tyrosine-protein kinase Lyn (P07948 whole entry): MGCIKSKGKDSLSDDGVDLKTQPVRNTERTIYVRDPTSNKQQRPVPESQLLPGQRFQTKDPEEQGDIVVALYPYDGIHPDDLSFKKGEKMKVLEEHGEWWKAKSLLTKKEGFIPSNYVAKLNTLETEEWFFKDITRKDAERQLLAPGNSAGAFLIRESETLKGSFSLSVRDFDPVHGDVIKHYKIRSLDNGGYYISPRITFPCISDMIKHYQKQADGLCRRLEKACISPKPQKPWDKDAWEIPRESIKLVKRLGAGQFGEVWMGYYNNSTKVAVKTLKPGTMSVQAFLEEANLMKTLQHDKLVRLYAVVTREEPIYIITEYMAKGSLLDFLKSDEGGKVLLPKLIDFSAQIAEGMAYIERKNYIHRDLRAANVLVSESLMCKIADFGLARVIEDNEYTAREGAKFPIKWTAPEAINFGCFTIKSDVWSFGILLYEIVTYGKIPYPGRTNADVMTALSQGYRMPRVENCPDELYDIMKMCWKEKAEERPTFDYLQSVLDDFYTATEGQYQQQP
The target of experiment [14] is Protein-tyrosine kinase 6 (Homo sapiens, UniProt Q13882). Format: functional.
For experiment [15], the target named is Serine/threonine-protein kinase Nek4 (Homo sapiens, UniProt P51957). Format: functional.
Experiment [16] concerns the target Mitogen-activated protein kinase kinase kinase 20 (Homo sapiens, UniProt Q9NYL2). The experiment is classed as functional.
In experiment [17] the target is Proto-oncogene tyrosine-protein kinase Src (Homo sapiens, UniProt P12931). Format: functional.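 Also: SRC entry within a kinome-wide kinase profiling panel.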
For experiment [18], the target named is Ribosomal protein S6 kinase alpha-5 (Homo sapiens, UniProt O75582). The experiment is classed as functional.
Experiment [19] deals with T1, Apoptotic protease-activating factor 1 (Homo sapiens, UniProt O14727).
T1 sequence (O14727 whole entry): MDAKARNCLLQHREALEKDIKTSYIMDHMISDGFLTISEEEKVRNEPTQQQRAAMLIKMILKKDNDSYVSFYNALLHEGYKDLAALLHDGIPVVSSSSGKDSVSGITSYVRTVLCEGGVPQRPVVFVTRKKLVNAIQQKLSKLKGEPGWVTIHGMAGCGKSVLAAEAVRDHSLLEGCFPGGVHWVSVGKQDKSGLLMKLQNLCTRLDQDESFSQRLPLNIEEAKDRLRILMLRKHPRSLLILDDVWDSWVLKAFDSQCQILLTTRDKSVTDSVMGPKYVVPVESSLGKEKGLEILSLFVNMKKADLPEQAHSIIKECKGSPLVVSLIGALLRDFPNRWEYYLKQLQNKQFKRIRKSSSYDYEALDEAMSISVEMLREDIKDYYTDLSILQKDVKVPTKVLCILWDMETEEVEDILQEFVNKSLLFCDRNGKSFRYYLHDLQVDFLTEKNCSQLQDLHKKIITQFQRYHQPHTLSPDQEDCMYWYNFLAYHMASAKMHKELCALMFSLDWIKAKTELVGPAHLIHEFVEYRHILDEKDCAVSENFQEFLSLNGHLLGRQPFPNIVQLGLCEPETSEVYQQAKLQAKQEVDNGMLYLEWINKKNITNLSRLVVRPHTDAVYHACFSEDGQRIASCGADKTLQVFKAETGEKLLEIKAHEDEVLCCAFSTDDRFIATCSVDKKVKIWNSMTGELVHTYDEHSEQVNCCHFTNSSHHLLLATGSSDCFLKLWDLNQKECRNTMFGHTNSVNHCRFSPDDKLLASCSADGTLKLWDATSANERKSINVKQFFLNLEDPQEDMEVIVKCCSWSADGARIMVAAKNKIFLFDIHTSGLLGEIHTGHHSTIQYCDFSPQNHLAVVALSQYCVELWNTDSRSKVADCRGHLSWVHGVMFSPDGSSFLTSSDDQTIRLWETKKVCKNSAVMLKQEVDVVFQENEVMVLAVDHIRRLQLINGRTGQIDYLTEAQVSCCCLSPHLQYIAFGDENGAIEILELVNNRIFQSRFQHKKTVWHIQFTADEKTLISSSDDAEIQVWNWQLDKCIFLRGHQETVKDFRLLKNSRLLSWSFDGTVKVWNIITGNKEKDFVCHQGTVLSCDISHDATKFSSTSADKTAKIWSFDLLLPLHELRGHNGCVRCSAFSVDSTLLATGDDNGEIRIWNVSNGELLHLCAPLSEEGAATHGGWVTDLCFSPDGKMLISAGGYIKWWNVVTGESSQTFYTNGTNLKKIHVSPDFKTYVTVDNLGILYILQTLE
Format: functional.

The target in experiment [20] is T2, Dual specificity protein phosphatase 6 (Rattus norvegicus, UniProt Q64346).
T2 sequence (Q64346 whole entry): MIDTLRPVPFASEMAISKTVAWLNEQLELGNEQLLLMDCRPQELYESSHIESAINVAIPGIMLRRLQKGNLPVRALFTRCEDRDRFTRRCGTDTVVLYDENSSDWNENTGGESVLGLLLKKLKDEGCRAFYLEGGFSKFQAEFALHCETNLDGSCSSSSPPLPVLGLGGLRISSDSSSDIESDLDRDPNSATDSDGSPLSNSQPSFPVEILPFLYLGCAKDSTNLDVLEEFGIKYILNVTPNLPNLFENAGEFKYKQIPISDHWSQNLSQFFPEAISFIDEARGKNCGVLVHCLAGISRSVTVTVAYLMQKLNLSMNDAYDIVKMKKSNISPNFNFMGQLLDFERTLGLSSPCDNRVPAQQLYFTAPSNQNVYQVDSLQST
Briefly: MKP-3 phosphatase inhibitors, primary screen, biochemical, rat enzyme, in vitro (AID 425).

Activity calls are given as the source filed them.

Chain of Mitogen-activated protein kinase 12 (P53778 whole entry): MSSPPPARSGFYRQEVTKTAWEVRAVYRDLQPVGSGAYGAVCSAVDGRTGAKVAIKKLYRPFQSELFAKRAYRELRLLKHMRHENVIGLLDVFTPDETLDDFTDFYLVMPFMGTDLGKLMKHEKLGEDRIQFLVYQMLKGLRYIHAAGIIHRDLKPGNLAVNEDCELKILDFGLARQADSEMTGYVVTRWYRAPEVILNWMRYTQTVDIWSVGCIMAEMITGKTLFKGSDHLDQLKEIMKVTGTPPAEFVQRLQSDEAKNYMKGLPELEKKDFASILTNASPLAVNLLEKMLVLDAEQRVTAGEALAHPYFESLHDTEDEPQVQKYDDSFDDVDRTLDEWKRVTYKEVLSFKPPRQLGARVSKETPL
Chain of Dual specificity tyrosine-phosphorylation-regulated kinase 1B (Q9Y463 whole entry): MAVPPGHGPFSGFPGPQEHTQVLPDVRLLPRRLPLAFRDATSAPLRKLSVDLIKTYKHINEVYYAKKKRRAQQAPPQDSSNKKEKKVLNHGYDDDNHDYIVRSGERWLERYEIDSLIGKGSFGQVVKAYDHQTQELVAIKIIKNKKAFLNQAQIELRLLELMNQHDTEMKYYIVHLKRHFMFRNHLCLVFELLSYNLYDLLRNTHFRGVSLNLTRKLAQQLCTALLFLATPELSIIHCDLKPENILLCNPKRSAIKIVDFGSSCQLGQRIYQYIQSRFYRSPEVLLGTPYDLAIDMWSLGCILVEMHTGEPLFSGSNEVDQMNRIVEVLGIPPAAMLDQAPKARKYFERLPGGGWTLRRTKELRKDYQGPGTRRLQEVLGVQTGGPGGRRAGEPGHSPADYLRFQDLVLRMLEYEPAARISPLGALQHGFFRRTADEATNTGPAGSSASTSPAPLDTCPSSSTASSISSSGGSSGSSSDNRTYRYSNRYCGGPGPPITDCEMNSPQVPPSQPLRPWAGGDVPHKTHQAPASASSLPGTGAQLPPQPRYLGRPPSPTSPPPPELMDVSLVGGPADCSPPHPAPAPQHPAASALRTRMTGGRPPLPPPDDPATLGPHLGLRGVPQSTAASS
Chain of Serine/threonine-protein kinase TBK1 (Q9UHD2 whole entry): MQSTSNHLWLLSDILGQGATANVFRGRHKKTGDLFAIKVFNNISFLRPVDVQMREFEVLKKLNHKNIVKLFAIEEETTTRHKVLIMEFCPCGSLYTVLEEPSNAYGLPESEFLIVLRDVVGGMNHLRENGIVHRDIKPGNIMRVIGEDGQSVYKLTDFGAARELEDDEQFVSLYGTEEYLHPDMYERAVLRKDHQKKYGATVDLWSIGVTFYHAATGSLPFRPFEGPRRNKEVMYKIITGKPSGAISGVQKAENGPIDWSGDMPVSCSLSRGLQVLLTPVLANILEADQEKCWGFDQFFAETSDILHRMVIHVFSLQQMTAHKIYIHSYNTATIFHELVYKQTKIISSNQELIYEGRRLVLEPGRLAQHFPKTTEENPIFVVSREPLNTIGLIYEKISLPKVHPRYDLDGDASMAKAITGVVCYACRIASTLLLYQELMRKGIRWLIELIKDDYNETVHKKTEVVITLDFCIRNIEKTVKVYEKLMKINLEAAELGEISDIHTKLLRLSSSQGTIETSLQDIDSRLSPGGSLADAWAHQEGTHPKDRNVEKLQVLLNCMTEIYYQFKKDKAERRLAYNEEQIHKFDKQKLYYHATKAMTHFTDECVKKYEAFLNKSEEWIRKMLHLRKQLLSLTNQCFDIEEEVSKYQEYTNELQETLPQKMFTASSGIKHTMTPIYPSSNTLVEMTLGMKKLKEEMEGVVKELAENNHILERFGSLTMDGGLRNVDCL
Chain of Mitogen-activated protein kinase kinase kinase 20 (Q9NYL2 whole entry): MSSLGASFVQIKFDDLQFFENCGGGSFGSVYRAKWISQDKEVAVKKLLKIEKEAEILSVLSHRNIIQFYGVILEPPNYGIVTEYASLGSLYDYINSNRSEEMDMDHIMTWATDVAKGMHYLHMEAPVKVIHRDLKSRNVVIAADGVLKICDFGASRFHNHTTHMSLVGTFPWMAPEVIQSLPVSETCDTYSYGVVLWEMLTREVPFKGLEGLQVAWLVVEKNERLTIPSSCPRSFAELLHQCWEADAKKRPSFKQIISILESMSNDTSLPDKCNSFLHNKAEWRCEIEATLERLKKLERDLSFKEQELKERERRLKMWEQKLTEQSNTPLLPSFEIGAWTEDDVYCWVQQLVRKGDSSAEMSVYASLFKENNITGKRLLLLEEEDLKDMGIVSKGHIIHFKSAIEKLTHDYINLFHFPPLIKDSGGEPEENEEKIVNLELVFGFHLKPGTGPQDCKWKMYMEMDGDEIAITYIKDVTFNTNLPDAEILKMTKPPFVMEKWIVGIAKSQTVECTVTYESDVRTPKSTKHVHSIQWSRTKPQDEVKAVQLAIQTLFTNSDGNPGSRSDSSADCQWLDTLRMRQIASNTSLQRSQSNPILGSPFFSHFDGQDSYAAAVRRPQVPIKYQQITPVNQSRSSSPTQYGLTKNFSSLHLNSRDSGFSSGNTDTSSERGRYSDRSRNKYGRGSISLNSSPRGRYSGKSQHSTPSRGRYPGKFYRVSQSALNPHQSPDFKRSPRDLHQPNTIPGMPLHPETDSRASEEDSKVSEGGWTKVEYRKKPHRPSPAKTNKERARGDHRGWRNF

As usually defined, the Ki is the dissociation constant of the complex between target and ligand, obtained from inhibition or displacement. Regarding `[2H]C([2H])([2H])Oc1cccc(C(C)NC(=O)c2sc(-c3ccncc3)nc2C)c1` (stereo unspecified), the Ki is > 2510 nM (inactive) in experiment [1]; > 2510 nM (inactive) in experiment [2]; > 2000 nM (inactive) in experiment [3]; > 3160 nM (inactive) in [4]; > 3980 nM (inactive) in experiment [5]; > 2510 nM (inactive) in experiment [6].
Turning to `Cc1n[nH]c2ccc(-c3cncc(OCC(N)Cc4ccc(Cl)c(Cl)c4)c3)cc12` (stereo unspecified), the Ki is 398 nM (active) in experiment [7]; 2510 nM (active) at Insulin receptor; 1000 nM (active) in experiment [8]; > 2000 nM (inactive) in [9]; 3.98 nM (active) in experiment [10]; 316 nM (active) in experiment [11]. In addition, the Ki in [12] is > 1580 nM (inactive); in [13], > 1580 nM (inactive); in [14], > 2510 nM (inactive); in experiment [15], 126 nM (active); in experiment [16] it was 7940 nM (active); in experiment [17], > 2000 nM (inactive). Also, the Ki in experiment [18] was 1.26 nM (active).
In general, IC50 refers to the point on the concentration scale where inhibition reaches its midpoint. For the compound `COc1ccc(-n2c(NC(=O)c3ccco3)c(C#N)c3nc4ccccc4nc32)cc1`, the IC50 was 12600 nM (active) in experiment [19] and > 100000 nM (not active) in experiment [20].
